Consider three compounds from publication PMC3478417 (Nuclear medicine and biology, 2012).

The logD is lipophilicity at a set pH, counting ionised and neutral species.

Data set [1] is described as follows: PET imaging of [11C]rhodamine-123 in rats. It counts as in vivo, rat.
The conditions of data set [2]: cited from earlier work.
The conditions of data set [3]: mouse; cited from earlier work.
The next data set concerns P-gp. The conditions noted are these: mouse, not told, iv; cited from earlier work.

Turning to `CN/C(=N/CCSCc1nc[nH]c1C)NC#N` [cimetidine], in data set [1] (30 mg/kg i.v., 30 min before radiotracer, rats), the “inhibition of OCT in kidney in vivo” value is given as “effective inhibitor of OCT in vivo”.

For the compound `CNC(=O)C(CCN1CCC(O)(c2ccc(Cl)cc2)CC1)(c1ccccc1)c1ccccc1` [dLop, desmethyl-loperamide], in data set [2], the logD was 2.60 and the pKa was 7.2–7.3.

On to `COC(=O)c1ccccc1-c1c2ccc(=N)cc-2oc2cc(N)ccc12.Cl` [rhodamine-123], for which the Plasma free fraction in data set [3] is given as 0.23 ± 0.04. For the same compound, the “brain concentration, P-gp knockout (mdr1a(−/−)) versus wild-type mice” value with P-gp is reported as “about 4 fold”. The “peak radioactivity in liver (PET)” value in data set [1] (DCPQ-pretreated versus untreated rats) is “greater peak radioactivity in liver”.
